In BindingDB's records for doi:10.1021/jm00395a016 (Medical Research Division of American Cyanamid, 1988):
pIC50: −log10 of the molar value.

Biological target: Thromboxane-A synthase (Rattus norvegicus)
Experiment: Tested for inhibition of thromboxane Synthetase from spontaneously hypertensive rats

pIC50: 8.00
SMILES: CC(Cn1ccnc1)Cn1c(=O)[nH]c2cc(Cl)ccc2c1=O (stereo unspecified)
